Results taken from patent US4051252A, “3-Aminoindazole-1 and 2-carboxylic acid derivatives” (Bayer Aktiengesellschaft, priority 1974, dated 1977).

Experiments:
rats [1] = experiment: Yeast Antipyretic Test; type: in vivo, rat; details: oral, raised body temperature lowered by 1° C in 50% of animals
Description: Antipyretic action can be observed in rats to which a beer yeast suspension has been administered subcutaneously. The body temperature is measured rectally before and 16 hours after administration of the beer years. The substance to be tested is administered orally to groups of 5 rats in which the body temperature has risen by at least 1° C. Thereafter, the temperature drop is measured rectally with a drop in the body temperature of at least 1° C being assessed as an antipyretic effet. The Ed50 is the dose at which, in 50% of the animals employed, the raised body temperature is lowered by 1° C upon administration of the active substance according to the invention.

rats [2] = experiment: Phenylquinone Writhing Test (analgesic activity); type: in vivo; details: Rattus norvegicus, oral, 60 minutes before phenylquinone i.p., writhing reduced to half of control
Description: Analgesic activity can also be observed in the phenylquinone writhing test in which 100 μg of phenylquinone, dissolved in 0.5 ml of 5% strength alcohol, are injected intraperitoneally into rats. A few minutes after administration, the animals show the characteristic writhing reaction, which consists of the animals showing extreme backward extension of the hind paws, flexing the back and lifting the tail. At the same time, wave-like contractions frequently pass over the abdominal muscles. The inhibition of this writhing syndrome is assessed to be an analgesic effect. The substance to be investigated is administered 30 minutes (in the case of subcutaneous administration) or 60 minutes (in the case of oral administration) before the injection of phenylquinone. Five animals are employed per compound and per dose. The ED50 is the dose at which the number of writhing reactions in the animals employed is on average reduced to half that of the control group [see generally: Siegmung et al., Proc. Soc. exp. Biol. Med. 95, 729-731 (1957)].

[3] = Acute Toxicity (oral, mouse); details: in vivo
From the text: The pharmacological properties can be conveniently observed in recognized in vivo models.

tails of rats = experiment: Tail Flick Test (analgesic action); type: in vivo; details: Rattus norvegicus; oral, male rats; reaction time of 50% of animals lengthened to at least 20 seconds
From the text: Analgesic action can be observed in the tail flick test on the tails of rats in which the tail of male rats is irradiated with a focused heat ray. In this test, untreated animals react after an average irradiation time of 5.1±0.8 seconds (reaction time) by drawing away the tail. Under the influence of analgesically active compounds, this reaction time becomes longer. Active compounds which after administration prolong the reaction time of the animals to at least 20 seconds are considered to be analgesically active. Five animals are employed per dose. The ED50 is the dose which on average lengthens the reaction time of 50% of the animals employed to at least 20 seconds [see generally Wolff et al., J. Clin. Invest., 19, 659-680 (1940)].

paw of rats = experiment: Carrageenin Anti-inflammatory Test (carrageenin edema on the paw of rats); type: in vivo, rat; details: one hour before carrageenin, measured 2 1/2 and 3 hours after carrageenin; for ED50: Rattus norvegicus, po
Description: The anti-inflammatory (antiphlogistic and anti-edematous) action of the compounds can be conveniently observed by the inhibition of carrageenin edema on the paw of rats. In this test, a reference measurement on the normal paws of rats is carried out half an hour before and half an hour after oral administration of the test compound, using an antiphlogmeter. One hour after administration of the substance, the edema is started by injecting a carrageenin solution into the planta pedis of one hind paw at 21/2 hours and 3 hours after the carrageenin injection, the effect on the edematous paw is measured. The relative paw volume is expressed as a percentage of the reference measurement (=100%). The ED50 is the dose at which, in 50% of the animals employed per dose, the difference between the relative paw volume of the treated animals and the relative paw volume of the 10 control groups is 100.

SMILES	ED50 (rats [1])	ED50 (rats [2])	LD50 [3]	ED50 (tails of rats)	ED50 (paw of rats)	ED50 (oral), Carrageenin Anti-inflammatory Test (paw of rats)
Nc1n[nH]c2ccc(C(F)(F)F)cc12 [3-amino-5-trifluoromethylindazole, reference compound]	48 mg/kg	61 mg/kg	228 mg/kg	67 mg/kg	–	–
CCOC(=O)n1nc(N)c2cc(C(F)(F)F)ccc21 [3-amino-5-trifluoromethylindazole-1-carboxylic acid ethyl ester]	–	1 mg/kg	> 5000 mg/kg	–	–	–
CCNC(=O)n1nc(N)c2cc(C(F)(F)F)ccc21 [3-amino-5-trifluoromethylindazole-1-carboxylic acid ethylamide]	51 mg/kg	–	> 1000 mg/kg	53 mg/kg	–	–
COC(=O)n1nc(N)c2cc(C(F)(F)F)ccc21 [3-amino-5-trifluoromethylindazole-1-carboxylic acid methyl ester]	~50 mg/kg	–	–	41 mg/kg	–	–
CCOC(=O)n1nc(N)c2ccc(Cl)cc21 [3-amino-6-chloroindazole-1-carboxylic acid ethyl ester]	–	–	~2000 mg/kg	–	~77 mg/kg	68 (44-138) mg/kg
COC(=O)n1nc(N)c2ccc(Cl)cc21 [3-amino-6-chloroindazole-1-carboxylic acid methyl ester]	~20 mg/kg	~10 mg/kg	> 1000 mg/kg	30 mg/kg	~40 mg/kg	–
CCCCOC(=O)n1nc(N)c2ccc(Cl)cc21 [3-amino-6-chloroindazole-1-carboxylic acid n-butyl ester]	–	–	> 1000 mg/kg	–	67 mg/kg	–
CN(C)C(=O)n1nc(N)c2ccc(Cl)cc21 [3-amino-6-chloroindazole-1-carboxylic acid-dimethylamide]	41 mg/kg	–	> 1000 mg/kg	–	–	–
CN(C)C(=O)n1nc2cc(Cl)ccc2c1N [3-amino-6-chloroindazole-2-carboxylic acid dimethylamide]	23 mg/kg	17 mg/kg	–	–	–	–
CCOC(=O)n1nc(N)c2ccc(C(F)(F)F)cc21 [3-amino-6-trifluoromethylindazole-1-carboxylic acid ethyl ester]	~50 mg/kg	–	–	53 mg/kg	–	–
CCOC(=O)n1nc(N)c2ccccc21 [3-aminoindazole-1-carboxylic acid ethyl ester]	–	–	~3000 mg/kg	–	~47 mg/kg	–
CCOC(=O)n1nc(N(C)C)c2ccc(Cl)cc21 [3-dimethylamino-6-chloroindazole-1-carboxylic acid ethyl ester]	5.2 mg/kg	17 mg/kg	> 5000 mg/kg	–	–	–
CN(C)C(=O)n1nc(NC=O)c2ccc(C(F)(F)F)cc21 [3-formylamino-6-trifluoromethyl-1-carboxylic acid dimethylamide]	–	–	–	–	–	92 (44-216) mg/kg
CN(C)C(=O)n1nc(NC=O)c2cc(C(F)(F)F)ccc21 [3formylamino-5-trifluoromethylindazole-1-carboxylic acid dimethylamide]	14 mg/kg	–	> 1000 mg/kg	–	–	–
